By inhibition is commonly meant the relative decrease from the control value, in per cent.

Molecules are shown by their SMILES.

The target in assay [1] is T1, Polyunsaturated fatty acid 5-lipoxygenase (Homo sapiens) (UniProt P09917).
T1 sequence (whole entry): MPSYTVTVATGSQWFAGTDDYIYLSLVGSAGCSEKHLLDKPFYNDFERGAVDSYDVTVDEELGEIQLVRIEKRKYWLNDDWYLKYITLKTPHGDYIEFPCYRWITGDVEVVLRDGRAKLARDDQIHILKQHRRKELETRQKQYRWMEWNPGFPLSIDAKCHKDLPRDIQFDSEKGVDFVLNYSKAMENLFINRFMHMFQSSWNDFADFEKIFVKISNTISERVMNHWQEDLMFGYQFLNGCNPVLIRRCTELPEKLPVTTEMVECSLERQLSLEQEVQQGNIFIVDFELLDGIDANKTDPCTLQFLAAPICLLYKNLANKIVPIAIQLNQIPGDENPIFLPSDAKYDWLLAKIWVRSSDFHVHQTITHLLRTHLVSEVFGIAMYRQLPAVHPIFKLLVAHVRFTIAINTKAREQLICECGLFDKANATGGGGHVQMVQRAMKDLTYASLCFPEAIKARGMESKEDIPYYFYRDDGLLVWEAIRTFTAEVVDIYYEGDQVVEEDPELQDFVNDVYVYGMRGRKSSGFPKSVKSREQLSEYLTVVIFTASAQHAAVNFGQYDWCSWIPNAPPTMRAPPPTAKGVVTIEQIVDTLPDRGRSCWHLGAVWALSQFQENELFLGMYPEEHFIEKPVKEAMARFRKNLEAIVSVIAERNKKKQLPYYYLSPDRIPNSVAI
The assay can be described thus: Inhibition of human recombinant 5-lipoxygenase at 1 mM after 10 mins by fluorescence assay.

Assay [2] deals with T2, Tyrosinase (Agaricus bisporus) (UniProt O42713).
T2 sequence (whole entry): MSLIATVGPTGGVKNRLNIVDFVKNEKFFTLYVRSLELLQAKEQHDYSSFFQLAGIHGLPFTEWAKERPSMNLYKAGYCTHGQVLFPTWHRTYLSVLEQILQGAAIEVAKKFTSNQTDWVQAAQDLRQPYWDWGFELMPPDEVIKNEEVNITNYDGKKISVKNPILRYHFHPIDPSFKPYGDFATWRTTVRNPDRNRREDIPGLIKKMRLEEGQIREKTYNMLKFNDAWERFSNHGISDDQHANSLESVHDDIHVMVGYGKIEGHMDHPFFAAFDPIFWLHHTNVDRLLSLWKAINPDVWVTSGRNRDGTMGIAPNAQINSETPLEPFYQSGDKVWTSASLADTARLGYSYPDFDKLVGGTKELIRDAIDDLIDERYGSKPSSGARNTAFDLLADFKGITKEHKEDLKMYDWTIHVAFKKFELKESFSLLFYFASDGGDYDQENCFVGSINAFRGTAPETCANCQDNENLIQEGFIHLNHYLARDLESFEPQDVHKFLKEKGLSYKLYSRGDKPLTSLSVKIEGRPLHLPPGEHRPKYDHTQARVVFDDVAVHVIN
Conditions: at 1 mM.

For assay [3], the target named is T3, Lethal factor (Bacillus anthracis) (UniProt P15917).
T3 sequence (whole entry): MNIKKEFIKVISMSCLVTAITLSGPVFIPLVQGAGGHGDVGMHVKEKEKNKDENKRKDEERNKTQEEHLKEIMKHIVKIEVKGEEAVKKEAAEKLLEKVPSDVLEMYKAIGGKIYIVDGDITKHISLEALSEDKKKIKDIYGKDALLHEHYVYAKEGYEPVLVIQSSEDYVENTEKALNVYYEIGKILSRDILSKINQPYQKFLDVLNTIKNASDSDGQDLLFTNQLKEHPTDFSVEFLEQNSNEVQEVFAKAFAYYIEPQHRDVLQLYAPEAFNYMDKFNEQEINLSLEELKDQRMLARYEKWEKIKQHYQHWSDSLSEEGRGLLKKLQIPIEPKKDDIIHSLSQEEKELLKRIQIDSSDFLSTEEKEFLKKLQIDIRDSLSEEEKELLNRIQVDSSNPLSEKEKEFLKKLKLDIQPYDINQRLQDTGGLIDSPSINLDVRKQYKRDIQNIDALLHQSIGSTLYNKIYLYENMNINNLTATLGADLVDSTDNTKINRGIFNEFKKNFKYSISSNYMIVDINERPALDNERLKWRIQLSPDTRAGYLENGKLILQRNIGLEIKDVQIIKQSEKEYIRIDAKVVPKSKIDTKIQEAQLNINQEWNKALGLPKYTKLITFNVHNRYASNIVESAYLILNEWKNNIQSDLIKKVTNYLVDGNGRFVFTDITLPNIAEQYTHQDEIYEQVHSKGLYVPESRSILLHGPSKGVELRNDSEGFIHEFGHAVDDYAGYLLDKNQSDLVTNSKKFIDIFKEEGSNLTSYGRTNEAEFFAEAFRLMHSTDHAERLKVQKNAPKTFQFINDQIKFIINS
The note with it: at 1 mM.

The target of assay [4] is T4, Interstitial collagenase (Homo sapiens) (UniProt P03956).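 Note: recombinant human enzyme, with inhibition measured after 30 min.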
T4 sequence (whole entry): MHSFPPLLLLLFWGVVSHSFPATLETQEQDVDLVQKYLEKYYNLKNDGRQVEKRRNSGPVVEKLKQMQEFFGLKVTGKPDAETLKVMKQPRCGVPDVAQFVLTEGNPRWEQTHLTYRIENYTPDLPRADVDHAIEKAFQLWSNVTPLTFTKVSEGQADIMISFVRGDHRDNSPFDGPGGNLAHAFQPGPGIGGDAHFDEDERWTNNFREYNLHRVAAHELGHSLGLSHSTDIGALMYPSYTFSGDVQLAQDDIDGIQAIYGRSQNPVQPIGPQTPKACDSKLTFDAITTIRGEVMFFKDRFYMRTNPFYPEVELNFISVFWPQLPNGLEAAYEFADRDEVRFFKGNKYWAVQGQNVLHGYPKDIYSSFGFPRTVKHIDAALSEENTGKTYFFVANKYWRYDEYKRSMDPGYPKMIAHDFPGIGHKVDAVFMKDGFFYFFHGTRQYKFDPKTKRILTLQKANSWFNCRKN
Conditions: at 1 mM.

Assay [5] concerns the target 72 kDa type IV collagenase (Homo sapiens, UniProt P08253). The note with it: at 1 mM.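 Note: recombinant human enzyme, inhibition read after a 30 min incubation.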
Assay [6] deals with Stromelysin-1 (Homo sapiens) (UniProt P08254). Conditions: at 1 mM.
Assay [7] deals with Neutrophil collagenase (Homo sapiens) (UniProt P22894). Conditions: at 1 mM.
The target of assay [8] is Matrix metalloproteinase-9 (Homo sapiens) (UniProt P14780). Conditions: at 1 mM.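 Note: recombinant human MMP9, activity read after 30 min.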
Chain of Matrix metalloproteinase-9 (Homo sapiens) (P14780 whole entry): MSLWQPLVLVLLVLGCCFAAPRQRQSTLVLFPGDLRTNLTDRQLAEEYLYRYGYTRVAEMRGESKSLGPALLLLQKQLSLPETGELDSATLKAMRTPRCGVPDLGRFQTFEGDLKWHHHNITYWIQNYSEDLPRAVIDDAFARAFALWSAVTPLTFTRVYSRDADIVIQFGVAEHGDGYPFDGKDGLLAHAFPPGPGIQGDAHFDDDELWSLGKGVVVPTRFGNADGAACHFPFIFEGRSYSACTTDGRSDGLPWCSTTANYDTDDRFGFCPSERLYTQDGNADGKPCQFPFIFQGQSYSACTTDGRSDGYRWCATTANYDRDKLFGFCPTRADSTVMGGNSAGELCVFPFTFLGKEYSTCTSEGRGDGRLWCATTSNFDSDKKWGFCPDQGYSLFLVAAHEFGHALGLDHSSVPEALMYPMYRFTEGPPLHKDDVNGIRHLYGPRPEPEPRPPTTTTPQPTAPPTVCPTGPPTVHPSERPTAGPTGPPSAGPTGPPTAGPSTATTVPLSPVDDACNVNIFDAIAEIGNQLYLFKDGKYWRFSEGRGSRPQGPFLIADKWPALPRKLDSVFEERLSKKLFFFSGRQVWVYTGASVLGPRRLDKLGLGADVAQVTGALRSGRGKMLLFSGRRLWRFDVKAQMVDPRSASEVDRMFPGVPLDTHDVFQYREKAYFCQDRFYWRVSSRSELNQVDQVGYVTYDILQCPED

Chain of Neutrophil collagenase (Homo sapiens) (P22894 101-467 limits assumed): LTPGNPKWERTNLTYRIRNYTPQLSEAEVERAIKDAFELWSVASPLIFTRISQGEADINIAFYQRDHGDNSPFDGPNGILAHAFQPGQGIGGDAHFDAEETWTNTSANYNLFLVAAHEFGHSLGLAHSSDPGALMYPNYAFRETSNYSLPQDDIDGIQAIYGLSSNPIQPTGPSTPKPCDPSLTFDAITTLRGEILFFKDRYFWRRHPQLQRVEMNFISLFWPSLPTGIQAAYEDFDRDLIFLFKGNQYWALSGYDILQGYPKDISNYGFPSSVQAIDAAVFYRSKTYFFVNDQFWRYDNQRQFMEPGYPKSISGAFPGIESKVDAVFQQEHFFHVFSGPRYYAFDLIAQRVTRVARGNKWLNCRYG
Chain of 72 kDa type IV collagenase (P08253 110-660 limits assumed): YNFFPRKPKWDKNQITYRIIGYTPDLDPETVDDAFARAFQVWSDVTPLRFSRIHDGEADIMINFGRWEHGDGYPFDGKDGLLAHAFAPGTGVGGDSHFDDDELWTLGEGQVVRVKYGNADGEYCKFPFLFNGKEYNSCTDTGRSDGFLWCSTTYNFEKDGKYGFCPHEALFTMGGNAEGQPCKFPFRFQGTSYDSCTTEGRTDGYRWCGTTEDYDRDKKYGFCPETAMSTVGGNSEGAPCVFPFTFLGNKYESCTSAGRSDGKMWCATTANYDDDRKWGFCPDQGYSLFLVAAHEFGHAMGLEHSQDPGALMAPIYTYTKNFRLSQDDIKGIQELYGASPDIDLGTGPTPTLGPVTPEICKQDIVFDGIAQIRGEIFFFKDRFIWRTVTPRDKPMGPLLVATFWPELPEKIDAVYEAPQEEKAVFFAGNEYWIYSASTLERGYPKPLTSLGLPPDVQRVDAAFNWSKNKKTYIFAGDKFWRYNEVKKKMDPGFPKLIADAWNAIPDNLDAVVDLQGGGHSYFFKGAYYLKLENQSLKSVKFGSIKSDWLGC
Chain of Stromelysin-1 (Homo sapiens) (P08254 100-477 limits assumed): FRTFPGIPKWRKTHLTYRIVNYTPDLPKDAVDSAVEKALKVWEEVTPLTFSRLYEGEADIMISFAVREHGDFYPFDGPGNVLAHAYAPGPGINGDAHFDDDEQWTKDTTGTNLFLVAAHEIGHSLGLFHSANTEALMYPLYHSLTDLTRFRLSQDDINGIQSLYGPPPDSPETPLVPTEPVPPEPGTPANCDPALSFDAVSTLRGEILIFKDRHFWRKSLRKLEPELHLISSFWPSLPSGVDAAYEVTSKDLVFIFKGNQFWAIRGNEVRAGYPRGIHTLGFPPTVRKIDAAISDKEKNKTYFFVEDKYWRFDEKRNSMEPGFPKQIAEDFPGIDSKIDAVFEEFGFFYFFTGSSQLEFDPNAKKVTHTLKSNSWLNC

For the compound `CC(=O)C1CCCC1=O` (stereo unspecified), the inhibition in assay [1] came out at 79%; in assay [2] it was 83%; in assay [3] it was 6%; in assay [4] it was 38%; in assay [5] it was 20%; in assay [6] it was 4%. Besides, the figures for the inhibition in assay [7] and in assay [8] were 37% and 25%, respectively.

In the case of `O=c1occcc1O`, the inhibition was 77% in assay [1]; 77% in assay [2]; 21% in assay [3]; 74% in assay [4]; 66% in assay [5]; 72% in assay [6]. The inhibition was found to be 68% in assay [7] and 70% in assay [8].

Source of the values: ChEMBL document CHEMBL1649420, “Identifying chelators for metalloprotein inhibitors using a fragment-based approach” (J Med Chem, 2011).
